The results in this text go back to patent US20070281894A1, “PREPARATION AND UTILITY OF SUBSTITUTED ERYTHROMYCIN ANALOGS” (Auspex Pharmaceuticals, Inc., priority 2006, published 2007).

The conditions of this data set: topical or ocular, 5 microgram per mL. On the procedure:
Liver microsomal stability assays were conducted at 1 mg per mL liver microsome protein with an NADPH-generating system in 2% NaHCO3 (2.2 mM NADPH, 25.6 mM glucose 6-phosphate, 6 units per mL glucose 6-phosphate dehydrogenase and 3.3 mM MgCl2). Test compounds were prepared as solutions in 20% acetonitrile-water and added to the assay mixture (final assay concentration 5 microgram per mL) and incubated at 37° C. Final concentration of acetonitrile in the assay should be <1%. Aliquots (50 μL) were taken out at times 0, 15, 30, 45, and 60 minutes, and diluted with ice cold acetonitrile (200 μL) to stop the reactions. Samples were centrifuged at 12000 RPM for 10 minutes to precipitate proteins. Supernatants were transferred to microcentrifuge tubes and stored for LC/MS/MS analysis of the degradation half-life of the test compounds.
For the compound `[2H]C([2H])([2H])O[C@]1(C)C[C@@H](C)C(=O)[C@H](C)[C@@H](O)[C@](C)(O)[C@@H](CC)OC(=O)[C@H](C)[C@@H](O[C@H]2C[C@@](C)(OC)[C@@H](O)[C@H](C)O2)[C@H](C)[C@H]1O[C@@H]1O[C@H](C)C[C@H](N(C)C)[C@H]1O` [Example 8, d3-6-O-Methyl-Erythromycin A (d3-clarithromycin)], the “increase in the degradation half-life as compared to the non-isotopically enriched drug (clarithromycin)” value is 10-400%.

As for `[2H]C([2H])([2H])O[C@]1(C)C[C@@H](C)C(=O)[C@H](C)[C@@H](O)[C@](C)(O)[C@@H](CC)OC(=O)[C@H](C)[C@@H](O[C@H]2C[C@@](C)(OC)[C@@H](O)[C@H](C)O2)[C@H](C)[C@H]1O[C@@H]1O[C@H](C)C[C@H](N(C)C([2H])([2H])[2H])[C@H]1O` [Example 11, d6-6-O-Methyl-Erythromycin A (d6-clarithromycin)], the “increase in the degradation half-life as compared to the non-isotopically enriched drug (clarithromycin)” value was 10-400%.

With `[2H]C([2H])([2H])N(C)[C@H]1C[C@@H](C)O[C@@H](O[C@@H]2[C@@H](C)[C@H](O[C@H]3C[C@@](C)(OC)[C@@H](O)[C@H](C)O3)[C@@H](C)C(=O)O[C@H](CC)[C@@](C)(O)[C@H](O)[C@@H](C)C(=O)[C@H](C)C[C@@]2(C)OC)[C@@H]1O` [Example 12, d3-6-O-Methyl-Erythromycin A (d3-clarithromycin)], the “increase in the degradation half-life as compared to the non-isotopically enriched drug (clarithromycin)” value is on record as 10-400%.
